Reference: patent publication US7166440B2, “2,4,5-trichlorophenoxyalkyl carboxylic acid and a method for determining dioxins using the same” (priority 2003, dated 2007)
Like-named read-outs stand apart in the source and are kept apart here.

Columns and labels:
[1] = tested on: monoclonal antibody of clone C-3 (anti-dioxin antibody); test: Competitive EIA: inhibition of binding of clone C-3 monoclonal antibody to solid-phase antigen by free dioxin; set-up: species or system mouse
Experimental: (§1) Using various monoclonal antibodies, the specificity of the monoclonal antibodies to dioxin isomers was examined. The monoclonal antibodies were prepared in the following manner. An antibody-producing cell was injected into the abdominal cavity of a pristane-pretreated mouse. Th ascites fluid in the abdominal cavity caused by the growth of the cells was collected, and then a monoclonal antibody was purified by affinity chromatography using a protein G-Sepharose (manufactured by BIO-RAD Co.) as a carrier. Using three antibody-producing clones C-1, C-2 and C-3, respective monoclonal antibodies were prepared. The clones C-1, C-2 and C-3 produce monoclonal antibodies with respect to dibenzodioxin having chlorine atom at the 2-, 3-, 7-, and 8-positions.
(§2) To evaluate the specificity of the monoclonal antibody was performed according to the following principles. A solid-phase antigen (competitor) and a free dioxin (ligand) are allowed to compete with each other with respect to a free monoclonal antibody (anti-dioxin antibody). If the reactivity of the monoclonal antibody and the dioxin is higher than that of the monoclonal antibody and the solid-phase antigen, the binding of the monoclonal antibody to the solid-phase antigen is reduced. This reduction of the binding of the monoclonal antibody to the solid-phase antigen can be measured by color development method. This phenomenon can be applied to evaluate the specificity.
(§3) First, the immune antigen or the compound (IIa) conjugated with BSA that was produced in Example 2 was diluted with PBS to 1 μg/ml, and divided into each well of a 96-well assay plate (manufactured by Costar, Cat. No. 3590) in an amount of 50 μl. Then, the plate was sealed and allowed to stand at room temperature for one hour. Then, each well was washed with PBS containing 0.005% of Tween 20 three times. Next, 300 μl of Block Ace (manufactured by Snow Brand Milk Products Co., Ltd.) diluted with distilled water to a concentration of 25% was supplied to each well, and the plate was sealed and allowed to stand at 37° C. for two hours. Each well was washed with PBS containing 0.005% of Tween 20 three times. Then, a 25 μl of the dioxin compound solution of a final concentration of 5×10^−7 M was added to each well. The dioxin compound solution was prepared by diluting the dioxin with a dilution solvent comprising 20% DMSO and 0.01% of Triton X100. As controls, a dilution solvent in an amount of 25 μl was added to each well. Immediately after the addition of the dioxin compound solution or the dilution solvent, 25 μl of an antibody solution diluted with PBS containing 1 mg/ml of BSA was added to each well. The assay plate was stand at room temperature for one hour with slightly shaking.
(§4) After washing with PBS containing 0.005% of Tween 20 three times, 50 μl of the diluted HRP-labeled goat anti-mouse IgG (H+L) antibody (produced by affinity purification) was added to each well. The diluted HRP-labeled antibody was prepared by diluting the purchased HRP-labeled antibody to 2000 times as much with 10% Block Ace. The plate was allowed to stand at room temperature for one hour, followed by washing with PBS containing 0.005% of Tween 20 three times. Then, 50 μl of a HRP substrate, TMB (manufactured by KPL Co., Ltd.), was added to each well and allowed to stand at room temperature for 5 to 10 min. Then, 5 μl of a 1 M phosphate solution was added to each well, and the absorbance at a wavelength of 455 nm (655 nm for the reference) was measured with a spectrophotometer for a microtiter. The reactivity was evaluated by obtaining the absorbance (B0) at the time when the dioxin compound is not added, which is a control (diluent) and the absorbance (B) at the time when the dioxin compound is added. The inhibition rate was measured based on the following equation. Inhibition rate={(B0−B)/B0}×100 (%)
(§5) Evaluation was such that the larger this inhibition rate is, the higher the specificity of the anti-dioxin antibody to the dioxin compound.

[2] = tested on: monoclonal antibody of clone C-1 (anti-dioxin antibody); test: Competitive EIA: inhibition of binding of clone C-1 monoclonal antibody to solid-phase antigen by free dioxin; set-up: species or system mouse
Experimental: as §1, §2, §3, §4, §5

[3] = tested on: monoclonal antibody of clone C-2 (anti-dioxin antibody); test: Competitive EIA: inhibition of binding of clone C-2 monoclonal antibody to solid-phase antigen by free dioxin; set-up: species or system mouse
Experimental: as §1, §2, §3, §4, §5

[4] = toxicity equivalent factor of the dioxins used; cited from earlier work
[5] = tested on: anti-dioxin antibody (monoclonal antibody) to 1,2,3,7,8-PeCDF; assay type: binding, mouse
Experimental: as §3, §4
An anti-dioxin antibody (monoclonal antibody) to 1,2,3,7,8-PeCDF is used as an antibody. A haptenized product of a solid-phase antigen 6-(2,4,5-trichlorophenoxy) hexanoic acid amide derivative (IIa) and the chlorine-containing organic compounds in Tables 2 and 3 were allowed to compete with each other to this anti-dioxin antibody so that a competitive reaction was effected in the same manner as in Example 3. Then, the cross-reactivity was examined.

[6] = solid-phase antigen * (haptenized product of 6-(2,4,5-trichlorophenoxy) hexanoic acid amide derivative IIa), dioxin compound 5×10^−7 M
[7] = solid-phase antigen immunogen 3, dioxin compound final concentration 5×10^−7 M
[8] = solid-phase antigen immunogen 1, dioxin compound final concentration 5×10^−7 M
[9] = solid-phase antigen immunogen 2, dioxin compound final concentration 5×10^−7 M
[10] = Table 2, dioxins having TEF, solid-phase antigen (IIa), antibody to 1,2,3,7,8-PeCDF
[11] = Table 3, other chlorine-containing organic compounds and polycyclic aromatic hydrocarbons, solid-phase antigen (IIa), antibody to 1,2,3,7,8-PeCDF

SMILES	Inhibition rate [1, 6]	Inhibition rate [1, 7]	Inhibition rate [2, 6]	Inhibition rate [2, 8]	Inhibition rate [3, 6]	Inhibition rate [3, 9]	TEF value [4]	cross reaction [5, 10]	cross reaction [5, 11]	cross reaction [5]
Clc1cc2c(cc1Cl)Oc1c(cc(Cl)c(Cl)c1Cl)O2 [1,2,3,7,8-PeCDD]	31.2%	5.4%	46.2%	21.3%	70.4%	45.7%	1	29.9%	–	–
Oc1ccc(Cl)c(Cl)c1 [3,4-Dichlorophenol]	–	–	–	–	–	–	–	–	<0.1%	–
Clc1cc2c(oc3c(Cl)c(Cl)c(Cl)c(Cl)c32)c(Cl)c1Cl [1,2,3,4,6,7,8-HpCDF]	3.4%	−2.7%	7.5%	−0.9%	51.4%	6.8%	0.01	17.9%	–	–
Clc1cc2c(oc3cc(Cl)c(Cl)c(Cl)c32)c(Cl)c1Cl [1,2,3,6,7,8-HxCDF]	4.1%	2.9%	7.0%	3.5%	5.0%	9.4%	0.1	36.6%	–	–
c1ccc2cc3c(ccc4ccccc43)cc2c1 [Benz[a]anthracene]	–	–	–	–	–	–	–	–	<0.1%	–
Clc1cccc(Cl)c1 [m-Dichlorobenzene]	–	–	–	–	–	–	–	–	<0.1%	–
c1ccc2c(c1)ccc1ccccc12 [Phenanthrene]	–	–	–	–	–	–	–	–	<0.1%	–
Clc1cc2c(cc1Cl)Oc1c(Cl)c(Cl)c(Cl)c(Cl)c1O2 [1,2,3,4,7,8-HxCDD]	−2.3%	−2.5%	14.1%	−1.4%	19.1%	−9.4%	0.1	24.8%	–	–
Clc1cc(-c2cc(Cl)c(Cl)c(Cl)c2)cc(Cl)c1Cl [3,3′,4,4′,5,5′-HxCB]	–	–	–	–	–	–	–	–	<0.1%	–
Clc1c(Cl)c(Cl)c2c(oc3c(Cl)c(Cl)c(Cl)c(Cl)c32)c1Cl [OCDF]	4.9%	1.3%	27.0%	1.1%	7.2%	18.1%	0.0001	8.0%	–	–
Clc1cc2oc3c(Cl)c(Cl)c(Cl)cc3c2cc1Cl [2,3,4,7,8-PeCDF]	46.2%	13.0%	40.1%	26.5%	55.0%	40.2%	–	16.1%	–	–
Clc1cc2oc3cc(Cl)c(Cl)c(Cl)c3c2c(Cl)c1Cl [1,2,3,7,8,9-HxCDF]	48.1%	10.4%	34.7%	26.2%	68.1%	43.3%	0.1	42.7%	–	–
Clc1cc2c(cc1Cl)Oc1cc(Cl)c(Cl)cc1O2 [2,3,7,8-TeCDD, 2,3,7,8-tetrachlorozibenzo-p-dioxin]	−3.4%	−0.2%	7.4%	0.4%	7.7%	−3.0%	1	1.1%	–	–
c1ccc2cc3ccccc3cc2c1 [Anthracene]	–	–	–	–	–	–	–	–	<0.1%	–
Clc1cc2oc3c(Cl)c(Cl)c(Cl)c(Cl)c3c2cc1Cl [1,2,3,4,7,8-HxCDF]	0.8%	4.9%	−1.5%	3.3%	−11.2%	5.2%	0.1	45.9%	–	–
Clc1cc2oc3c(Cl)c(Cl)c(Cl)c(Cl)c3c2c(Cl)c1Cl [1,2,3,4,7,8,9-HpCDF]	11.3%	6.1%	7.1%	5.8%	7.5%	27.7%	0.01	28.7%	–	–
Clc1ccc(-c2cc(Cl)c(Cl)c(Cl)c2)cc1Cl [3,3′,4,4′,5-PeCB]	–	–	–	–	–	–	–	–	<0.1%	–

SMILES	Inhibition rate [1, 6]	Inhibition rate [1, 7]	Inhibition rate [2, 6]	Inhibition rate [2, 8]	Inhibition rate [3, 6]	Inhibition rate [3, 9]	TEF value [4]	cross reaction [5, 10]	cross reaction [5, 11]	cross reaction [5]
Clc1cc2c(c(Cl)c1Cl)Oc1c(cc(Cl)c(Cl)c1Cl)O2 [1,2,3,7,8,9-HxCDD]	28.6%	6.7%	19.1%	15.7%	41.9%	30.6%	0.1	39.8%	–	–
c1ccc2c(c1)Cc1ccccc1-2 [Fluorene]	–	–	–	–	–	–	–	–	<0.1%	–
c1ccc2ccccc2c1 [Naphthalene]	–	–	–	–	–	–	–	–	<0.1%	–
Oc1cc(Cl)c(Cl)cc1Cl [2,4,5-Trichlorophenol]	–	–	–	–	–	–	–	–	<0.1%	–
Clc1cc2oc3cc(Cl)c(Cl)cc3c2cc1Cl [2,3,7,8-TeCDF]	4.3%	−1.6%	8.4%	1.6%	37.6%	15.3%	0.1	1.5%	–	–
c1ccc2c(c1)-c1cccc3c1c-2cc1ccccc13 [Benzo[b]fluoranthene]	–	–	–	–	–	–	–	–	<0.1%	–
c1ccc2c(c1)-c1ccc3ccc4cccc5cc-2c1c3c45 [Indeno[1,2,3-cd]pyrene]	–	–	–	–	–	–	–	–	<0.1%	–
Clc1cc2c(c(Cl)c1Cl)Oc1cc(Cl)c(Cl)c(Cl)c1O2 [1,2,3,6,7,8-HxCDD]	6.7%	3.9%	−0.3%	3.1%	2.2%	−6.2%	0.1	18.0%	–	–
c1cc2ccc3cccc4ccc(c1)c2c34 [Pyrene]	–	–	–	–	–	–	–	–	<0.1%	–
c1cc2ccc3ccc4ccc5cccc6c(c1)c2c3c4c56 [Benzo[ghi]perylene]	–	–	–	–	–	–	–	–	<0.1%	–
Clc1cccc(Cl)c1Cl [1,2,3-Trichlorobenzene]	–	–	–	–	–	–	–	–	<0.1%	–
Clc1ccc(-c2ccc(Cl)c(Cl)c2)cc1Cl [3,3′,4,4′-TeCB]	–	–	–	–	–	–	–	–	<0.1%	–
c1ccc2cc3c(cc2c1)-c1cccc2cccc-3c12 [Benzo[k]fluoranthene]	–	–	–	–	–	–	–	–	<0.1%	–
c1ccc2c(c1)ccc1c3ccccc3ccc21 [Chrysene]	–	–	–	–	–	–	–	–	<0.1%	–
Oc1ccc(Cl)cc1Cl [2,4-Dichlorophenol]	–	–	–	–	–	–	–	–	<0.1%	–
Clc1ccc(-c2ccccc2)cc1 [p-chlorobiphenyl]	–	–	–	–	–	–	–	–	<0.1%	–
c1ccc2c(c1)-c1cccc3cccc-2c13 [Fluoranthene]	–	–	–	–	–	–	–	–	–	<0.1%
